Measured values from the CheMixHub viscosity set.

Test: xn = mol fraction of the nth substance listed

CCCCCCCC + CC(C)O
viscosity [mPa·s]
Conditions | 293.15 K | 298.15 K | 303.15 K | 308.15 K
101 kPa, x2 = 0.0569 | – | 0.515 | – | 0.446
101 kPa, x2 = 0.1093 | – | 0.518 | – | 0.45
101 kPa, x2 = 0.1441 | – | 0.524 | – | 0.451
101 kPa, x2 = 0.2343 | – | 0.542 | – | 0.466
101 kPa, x2 = 0.3228 | – | 0.568 | – | 0.486
101 kPa, x2 = 0.3517 | – | 0.579 | – | 0.497
101 kPa, x2 = 0.4196 | – | 0.611 | – | 0.523
101 kPa, x2 = 0.5016 | – | 0.665 | – | 0.561
101 kPa, x2 = 0.5603 | – | 0.717 | – | 0.601
101 kPa, x2 = 0.6122 | – | 0.773 | – | 0.643
101 kPa, x2 = 0.7012 | – | 0.9 | – | 0.732
101 kPa, x2 = 0.7937 | – | 1.088 | – | 0.877
101 kPa, x2 = 0.9122 | – | 1.496 | – | 1.177
101 kPa, x2 = 0.9475 | – | 1.68 | – | 1.315
101.32 kPa, x2 = 0.0518 | 0.539 | 0.507 | 0.476 | –
101.32 kPa, x2 = 0.0896 | 0.542 | 0.51 | 0.479 | –
101.32 kPa, x2 = 0.212 | 0.562 | 0.526 | 0.494 | –
101.32 kPa, x2 = 0.282 | 0.58 | 0.542 | 0.507 | –
101.32 kPa, x2 = 0.4103 | 0.644 | 0.596 | 0.552 | –
101.32 kPa, x2 = 0.6027 | 0.83 | 0.752 | 0.685 | –
101.32 kPa, x2 = 0.6988 | 0.985 | 0.883 | 0.795 | –
101.32 kPa, x2 = 0.7988 | 1.225 | 1.088 | 0.967 | –
101.32 kPa, x2 = 0.9007 | 1.624 | 1.429 | 1.25 | –
101.32 kPa, x2 = 0.9496 | 1.961 | 1.69 | 1.482 | –
